Measurements from PubChem BioAssay AID1963979 (Molecular Pharmacology Branch, DTP, NCI, 2024).

Test system: 361931-004-R-J1-PDC multicell spheroid viability
Assay: Anticancer human tumor 361931-004-R-J1-PDC patient-derived colon adenocarcinoma cell line growth inhibition [PI3K]
Details: for viability, T/C: stronger effect = lower value
Procedure, shortened: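 Complex 3D spheroids (cancer cells + endothelial HUVEC + mesenchymal stem cells); drug pairs of targeted agent x inavolisib/alpelisib/duvelisib/copanlisib; half-log series from ~Cmax, max 10 microM if Cmax unknown; endpoint viability.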
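Further: spheroids exposed to agents for seven days before readout.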

## CCN1CCN(Cc2ccc(Nc3ncc(F)c(-c4cc(F)c5nc(C)n(C(C)C)c5c4)n3)nc2)CC1 + Cc1nc(NC(=O)N2CCCC2C(N)=O)sc1-c1ccnc(C(C)(C)C(F)(F)F)c1
Curve of first compound, second compound 0.0316 µM
  IC50: > 1000 nM
Curve of first compound, second compound 0.1 µM
  IC50: > 1000 nM
Curve of first compound, second compound 0.316 µM
  IC50: > 1000 nM
Curve of first compound, second compound 1 µM
  IC50: 605 nM
Curve of first compound, second compound 3.16 µM
  IC50: 111 nM
Curve of first compound, second compound 10 µM
  IC50: 18.9 nM
Second compound 0.0316 µM, first compound 0.00316 µM
  viability, T/C: 91.8%
Second compound 0.0316 µM, first compound 0.01 µM
  viability, T/C: 99.3%
Second compound 0.0316 µM, first compound 0.0316 µM
  viability, T/C: 99.5%
Second compound 0.0316 µM, first compound 0.1 µM
  viability, T/C: 93.8%
Second compound 0.0316 µM, first compound 0.316 µM
  viability, T/C: 79.7%
Second compound 0.0316 µM, first compound 1 µM
  viability, T/C: 82.1%
Second compound 0.1 µM, first compound 0.00316 µM
  viability, T/C: 99.6%
Second compound 0.1 µM, first compound 0.01 µM
  viability, T/C: 97.2%
Second compound 0.1 µM, first compound 0.0316 µM
  viability, T/C: 96.6%
Second compound 0.1 µM, first compound 0.1 µM
  viability, T/C: 82.6%
Second compound 0.1 µM, first compound 0.316 µM
  viability, T/C: 81.7%
Second compound 0.1 µM, first compound 1 µM
  viability, T/C: 57.4%
Second compound 0.316 µM, first compound 0.00316 µM
  viability, T/C: 97.9%
Second compound 0.316 µM, first compound 0.01 µM
  viability, T/C: 90.2%
Second compound 0.316 µM, first compound 0.0316 µM
  viability, T/C: 83.8%
Second compound 0.316 µM, first compound 0.1 µM
  viability, T/C: 72.6%
Second compound 0.316 µM, first compound 0.316 µM
  viability, T/C: 69.5%
Second compound 0.316 µM, first compound 1 µM
  viability, T/C: 56.4%
Second compound 1 µM, first compound 0.00316 µM
  viability, T/C: 95.2%
Second compound 1 µM, first compound 0.01 µM
  viability, T/C: 87.7%
Second compound 1 µM, first compound 0.0316 µM
  viability, T/C: 75.2%
Second compound 1 µM, first compound 0.1 µM
  viability, T/C: 74.3%
Second compound 1 µM, first compound 0.316 µM
  viability, T/C: 65.2%
Second compound 1 µM, first compound 1 µM
  viability, T/C: 39.7%
Second compound 3.16 µM, first compound 0.00316 µM
  viability, T/C: 75.4%
Second compound 3.16 µM, first compound 0.01 µM
  viability, T/C: 67.2%
Second compound 3.16 µM, first compound 0.0316 µM
  viability, T/C: 54.9%
Second compound 3.16 µM, first compound 0.1 µM
  viability, T/C: 51.9%
Second compound 3.16 µM, first compound 0.316 µM
  viability, T/C: 46%
Second compound 3.16 µM, first compound 1 µM
  viability, T/C: 37.3%
Second compound 10 µM, first compound 0.00316 µM
  viability, T/C: 65.9%
Second compound 10 µM, first compound 0.01 µM
  viability, T/C: 59%
Second compound 10 µM, first compound 0.0316 µM
  viability, T/C: 40.6%
Second compound 10 µM, first compound 0.1 µM
  viability, T/C: 40.5%
Second compound 10 µM, first compound 0.316 µM
  viability, T/C: 32.2%
Second compound 10 µM, first compound 1 µM
  viability, T/C: 30.5%

## CC(Nc1ncnc2nc[nH]c12)c1cc2cccc(Cl)c2c(=O)n1-c1ccccc1 (centres undefined)
Compound 0.0316 µM
  viability, T/C: 106% [middle of 8 runs]
Compound 0.1 µM
  viability, T/C: 102% [middle of 8 runs]
Compound 0.316 µM
  viability, T/C: 105% [middle of 8 runs]
Compound 1 µM
  viability, T/C: 104% [middle of 8 runs]
Compound 3.16 µM
  viability, T/C: 103% [middle of 8 runs]
Compound 10 µM
  viability, T/C: 102% [middle of 8 runs]
Compound alone, run of 05/09/2023
  IC50: > 10000 nM
